Data as given in US9096591B2, “Tetracyclic compounds” (Medivation Technologies, Inc., priority 2007, dated 2015).
Read-outs that look alike come from different tables or passages of the source.

How the values were obtained:
[1] = biological target: T1, human recombinant serotonin (5-Hydroxytryptamine) 5-HT2C receptor (Homo sapiens, UniProt P28335); test: Serotonin 5-HT2C radioligand binding ([3H]Mesulergine); set-up: Inhibition of ligand binding, Ser. 5-HT2C: concentration or dose not given beside the values; settings: percent inhibition of specific binding
T1 construct: expressed in transfected cells; host or cells: CHO-K1 cells
T1 sequence (P28335 33-458): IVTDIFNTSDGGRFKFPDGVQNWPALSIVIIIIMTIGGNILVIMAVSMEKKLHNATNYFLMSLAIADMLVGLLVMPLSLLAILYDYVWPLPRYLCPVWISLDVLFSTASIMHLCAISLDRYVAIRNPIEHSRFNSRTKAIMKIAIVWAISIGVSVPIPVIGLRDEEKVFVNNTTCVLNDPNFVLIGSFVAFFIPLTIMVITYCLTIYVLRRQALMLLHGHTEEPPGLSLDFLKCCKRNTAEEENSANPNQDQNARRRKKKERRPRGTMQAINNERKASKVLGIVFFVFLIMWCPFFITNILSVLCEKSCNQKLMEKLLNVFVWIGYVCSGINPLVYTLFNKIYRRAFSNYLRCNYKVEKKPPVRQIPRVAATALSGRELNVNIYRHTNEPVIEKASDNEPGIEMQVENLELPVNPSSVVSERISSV
Method: Compounds of the invention were incubated with 1 nM [^3H]Mesulergine for 60 minutes at 25° C. Non-specific binding was estimated in the presence of 1 μM Mianserin. Receptor proteins were filtered and washed, the filters were then counted to determine [^3H]Mesulergine specifically bound. […] Biochemical assay results are presented as the percent inhibition of specific binding in Table 6.

[2] = test system: adrenergic receptors α1D, α2A, α2B; serotonin receptor 5-HT6; dopamine receptor D2L; test: Classification of compounds (Type 1-4) from receptor binding and neurite outgrowth
Text: Compounds of the invention that inhibit binding of a ligand to adrenergic receptors α1D, α2A, α2B and serotonin receptor 5-HT6 by at least about 80% as determined in a suitable assay such as the assays described herein can be classified as Type 1 compounds. […] In one variation, binding of a ligand to serotonin receptor 5-HT7 is at least about 80%. […] Weak inhibition of binding of a ligand to the histamine H1 receptor is permitted as agonists of this receptor have been implicated in stimulating memory as well as weight gain. In one variation, binding to histamine receptor H1 is inhibited by less than about 80%. […] Compounds that inhibit binding of a ligand to the dopamine D2L receptor by at least about 80% as determined in a suitable assay such as the assay described herein can be classified as Type 2 compounds.
In one variation, Type 1 compounds further inhibit binding of a ligand to dopamine receptor D2L by less than about 80% as determined in a suitable assay known in the art such as the assay described herein. […] In one variation, binding of a ligand to serotonin receptor 5-HT7, 5-HT2A and/or 5-HT2C is inhibited by at least about 80% as determined in a suitable assay such as the assays described herein. […] In one variation, binding of a ligand to histamine receptor H1 and/or H2 is inhibited by less than about 80% as determined by a suitable assay known in the art such as the assays described herein.
In one variation, biding to serotonin receptor 5-HT2A is inhibited by at least about 80% as determined in a suitable assay know in the art such as the assay described herein.

[3] = biological target: T2, human recombinant histamine H2 receptor (Homo sapiens, UniProt P25021); test: Histamine H2 radioligand binding ([125I]Aminopotentidine)
T2 construct: expressed in transfected cells; host or cells: CHO-K1 cells
Method in brief: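 Test compounds were assessed for their ability to displace radioligand from the human recombinant histamine H2 receptor. Non-specific binding was determined in the presence of 3 μM Tiotidine, and results were expressed as percent inhibition of specific binding, with 1% DMSO serving as the vehicle.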

[4] = biological target: T3, human recombinant adrenergic α2A receptor (Homo sapiens, UniProt P08913); test: Adrenergic α2A radioligand binding ([3H]MK-912); set-up: Inhibition of ligand binding, Adren. alpha2A: concentration or dose not given beside the values; settings: percent inhibition of specific binding
T3 construct: expressed in transfected cells; host or cells: insect Sf9 cells
T3 sequence (P08913 1-465): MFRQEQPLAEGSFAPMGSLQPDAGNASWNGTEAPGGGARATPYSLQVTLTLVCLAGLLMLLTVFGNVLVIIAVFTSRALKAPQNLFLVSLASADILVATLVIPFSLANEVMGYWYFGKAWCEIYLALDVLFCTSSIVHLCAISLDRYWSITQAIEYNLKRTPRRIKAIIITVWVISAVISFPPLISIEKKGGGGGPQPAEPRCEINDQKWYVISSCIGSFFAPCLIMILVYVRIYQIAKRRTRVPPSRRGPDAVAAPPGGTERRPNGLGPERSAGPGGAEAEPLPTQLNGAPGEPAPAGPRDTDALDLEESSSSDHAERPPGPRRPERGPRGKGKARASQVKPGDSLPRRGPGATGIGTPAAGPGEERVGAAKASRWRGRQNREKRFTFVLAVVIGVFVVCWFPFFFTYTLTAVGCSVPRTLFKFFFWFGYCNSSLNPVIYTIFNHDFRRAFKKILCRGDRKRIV
Method in brief: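 Membranes from Sf9 cells expressing the receptor were incubated with 1 nM [3H]MK-912 for 60 minutes at 25° C in 50 mM Tris-HCl pH 7.4, 12.5 mM MgCl2, 2 mM EDTA. 10 μM WB-4101 defined non-specific binding. Values are percent inhibition of specific bound radioactivity after filtration.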

[5] = biological target: T4, Serotonin (5-Hydroxytryptamine) 5-HT7 (Homo sapiens, UniProt P34969); test: Serotonin 5-HT7 radioligand binding ([3H]LSD); set-up: Inhibition of ligand binding, Ser. 5-HT7: concentration or dose not given beside the values; settings: percent inhibition of specific binding
T4 construct: expressed in transfected cells; host or cells: CHO cells
Method: Lysergic acid diethylamide (LSD) for 2 hours at 25° C. […] Receptor proteins were filtered and washed, the filters were then counted to determine [^3H]LSD specifically bound. […] Biochemical assay results are presented as the percent inhibition of specific binding in Table 6.

[6] = percent inhibition of specific binding, screened at 1 μM, read-out: Inhibition of ligand binding, Hist. H2
[7] = read-out: Inhibition of ligand binding, Hist. H2

T4 sequence (P34969 whole entry): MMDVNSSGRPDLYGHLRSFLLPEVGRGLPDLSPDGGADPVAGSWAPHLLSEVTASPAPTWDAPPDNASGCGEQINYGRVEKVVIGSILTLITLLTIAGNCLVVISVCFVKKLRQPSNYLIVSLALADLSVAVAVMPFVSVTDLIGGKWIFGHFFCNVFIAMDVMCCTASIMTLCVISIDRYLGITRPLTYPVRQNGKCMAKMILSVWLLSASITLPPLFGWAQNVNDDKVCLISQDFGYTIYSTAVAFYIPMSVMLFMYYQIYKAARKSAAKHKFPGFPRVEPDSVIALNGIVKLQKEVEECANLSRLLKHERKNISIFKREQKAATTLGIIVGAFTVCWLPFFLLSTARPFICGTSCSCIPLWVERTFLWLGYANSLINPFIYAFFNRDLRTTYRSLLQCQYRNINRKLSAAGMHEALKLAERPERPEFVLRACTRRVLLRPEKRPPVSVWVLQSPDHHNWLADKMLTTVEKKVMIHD
T2 sequence (P25021 whole entry): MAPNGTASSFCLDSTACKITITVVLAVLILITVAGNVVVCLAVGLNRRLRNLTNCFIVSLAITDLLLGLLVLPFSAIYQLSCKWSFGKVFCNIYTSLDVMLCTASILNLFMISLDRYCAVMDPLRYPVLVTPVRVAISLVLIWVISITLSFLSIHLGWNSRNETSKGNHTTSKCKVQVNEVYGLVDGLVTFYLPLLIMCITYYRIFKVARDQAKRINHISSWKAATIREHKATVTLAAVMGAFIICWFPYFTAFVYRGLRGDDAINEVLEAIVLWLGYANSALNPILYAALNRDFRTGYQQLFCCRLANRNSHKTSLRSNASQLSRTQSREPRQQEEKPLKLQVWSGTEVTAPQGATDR

inhibition at 0.3 µM ([3]; 0.3 μM compound, 0.1 nM [125I]Aminopotentidine, read-out: Histamine Binding H2, percent inhibition of specific binding) [%]	inhibition at 1 µM ([3]; 1 μM compound, 0.1 nM [125I]Aminopotentidine, read-out: Histamine Binding H2, percent inhibition of specific binding) [%]	SMILES	Inhibition of ligand binding, Ser. 5-HT2C [1] [%]	compound type (classification by receptor binding profile and neurite outgrowth) [2]	inhibition at 1 µM [3, 6] [%]	Inhibition of ligand binding, Adren. alpha2A [4] [%]	Inhibition of ligand binding, Ser. 5-HT7 [5] [%]	inhibition at 1 µM [3, 7] [%]	inhibition at 1 µM ([3]; read-out: Histamine Binding H2, percent inhibition of specific binding) [%]
40	58	Cc1ccc(C(O)Cn2c3c(c4cc(C)ccc42)CN(C)CC3)cc1 (racemic) [Compound 28, racemic-2-(1,2,3,4-tetrahydro-2,8-dimethylpyrido[4,3-b]indol-5-yl)-1-p-tolylethanol]	100	Type one	84	100	–	–	–
–	–	CN1CCc2c(c3cc(Cl)ccc3n2CCc2cccnc2)C1 [Compound 55]	87	Type one	62	86	–	–	–
–	–	Cc1ccc2c(c1)c1c(n2CCc2cccnc2)CCN(C)C1 [Compound 60]	90	Type one	56	84	–	–	–
–	–	CN1CCc2c(c3ccc(Cl)cc3n2CCC2CCCCC2)C1 [Compound 188, 7-chloro-5-(2-cyclohexylethyl)-2,3,4,5-tetrahydro-2-methyl-1H-pyrido[4,3-b]indole]	66	–	72	80	41	–	–
–	–	Cc1ccc2c(c1)c1c(n2CCc2ccc(C)nc2)CC(=O)N(C)C1 [Compound 195, 1,2-dihydro-2,8-dimethyl-5-(2-(6-methylpyridin-3-yl)ethyl)-4H-pyrido[4,3-b]indol-3(5H)-one]	−5	–	22	4	2	–	–
–	–	Cc1ccc2c(c1)c1c(n2CCc2ccccc2)CC(O)N(C)C1=O (centres unmarked) [Compound 215, 3,4-dihydro-3-hydroxy-2,8-dimethyl-5-phenethyl-2H-pyrido[4,3-b]indol-1(5H)-one]	2	–	–	23	10	16	–
–	–	Cc1ccc2c(c1)c1c(n2CCc2ccc(C)nc2)CCN(C)C1=O [Compound 216]	−11	–	–	15	18	11	11
–	–	Cc1ccc2c(c1)c1c(n2CCN2CCCCC2)CCN(C)C1 [Compound 224, 2,3,4,5-tetrahydro-2,8-dimethyl-5-(2-(piperidin-1-yl)ethyl)-1H-pyrido[4,3-b]indole]	74	–	79	57	61	–	–
–	–	Cc1ccc2c(c1)c1c(n2CCc2ccccc2)CCN(C(=O)OCC(Cl)(Cl)Cl)C1 [Compound 227, 2,2,2-trichloroethyl 3,4-dihydro-8-methyl-5-phenethyl-1H-pyrido[4,3-b]indole-2(5H)-carboxylate]	4	–	1	0	−8	–	–
–	–	Cc1ccc2c(c1)c1c(n2CCc2ccccc2)CCNC1 [Compound 228, 2,3,4,5-tetrahydro-8-methyl-5-phenethyl-1H-pyrido[4,3-b]indole]	82	–	15	87	95	–	–
–	–	CN1CCc2c(c3cc(F)ccc3n2CCc2ccc(F)cc2)C1 [Compound 253]	93	–	73	93	87	–	–
–	–	Cc1ccc2c(c1)c1c(n2CCc2ccc(C(=O)O)nc2)CCNC1 [Compound 262]	6	–	-8	8	6	–	–
–	–	CN1CCc2c(c3cc(Cl)ccc3n2CCn2cccc2)C1 [Compound 349, 8-Chloro-2-methyl-5-(2-pyrrol-1-yl-ethyl)-2,3,4,5-tetrahydro-1H-pyrido[4,3-b]indole]	98	–	94	96	100	–	–
–	–	Cc1ccc2c(c1)c1c(n2CCC(=O)N2CCC(NC(=O)OC(C)(C)C)CC2)CCN(C)C1 [Compound 393, tert-butyl 1-(3-(1,2,3,4-tetrahydro-2,8-dimethylpyrido[4,3-b]indol-5-yl)propanoyl)piperidin-4-ylcarbamate]	26	–	3	98	8	–	–
–	–	Cc1ccc2c(c1)c1c(n2CCc2ccc(C)[n+]([O-])c2)CCN(C)C1 [Compound 394, 5-(2-(2,8-dimethyl-3,4-dihydro-1H-pyrido[4,3-b]indol-5(2H)-yl)ethyl)-2-methylpyridine 1-oxide]	−8	–	-2	15	7	–	–
–	–	Cc1ccc2c(c1)c1c(n2CC(=O)N2CCCCC2)CCN(C)C1 [Compound 395, 2-(1,2,3,4-tetrahydro-2,8-dimethylpyrido[4,3-b]indol-5-yl)-1-(piperidin-1-yl)ethanone]	50	–	4	4	24	–	–
–	–	CC(Cn1c2c(c3ccccc31)CN(C)CC2)c1ccc(F)cc1 (centres unmarked) [Compound 455]	97	–	91	93	98	–	–
